Measurements: EP2181708A1, “Use of Valproate for reducing CHOP levels, particularly in a mammal having SCI” (Universitat Autonoma de Barcelona, priority 2008, dated 2010)

What was measured:
CHOP = test: Tunicamycin-induced ER stress in primary fibroblasts, Western blot of CHOP; type: cell-based, rat; conditions: primary fibroblast cells, 3 µg/ml tunicamycin, valproate
Procedure: Primary fibroblasts obtained from rat sciatic nerve and HEK cell line were cultured in Dulbecco's modified Eagle's/F-12 medium supplemented with 10% fetal calf serum (Gibco). Fibroblasts were treated with 3 µg/mL of tunicamycin (Sigma) for 4 h and harvested in RIPA buffer for protein extraction.
We have recently reported that SCI triggers an unbalanced UPR characterized by unchanged levels of BiP/Grp78 levels but progressive accumulation of the pro-apoptotic protein CHOP, with maximal CHOP levels found at 3 days post-injury in the weight-drop contusion model (Penas et al, 2007). In this study, we used a contusion model using an impactor device to specifically control the force (either 150 KDyn or 250 KDyn) to be apply on the T8 laminectomized spinal cord segment. We analyzed the spinal cord 8 mm-length segment that includes the lesion epicenter from sham-operated animals and from VPA treated or vehicle treated SCI animals at 3 days after operation. […] Thus, we increased the amount of VPA administered to 300 mg/kg every 12 h, as reported previously for a brain stroke rat model (Kim et al, 2007), and analyzed the effect using two different contusion forces of 150 and 250 KDyn. We observed that the levels of CHOP were directly proportional to the severity of the lesion; the more severe, the higher the level. […]

axons = test: Immunohistochemistry of axons (RT97 neurofilament, 5-HT) after SCI; type: in vivo, Sprague-Dawley rats
Procedure: (§1) Adult females Sprague-Dawley rats aged 11 weeks (220-250 g) were anesthetized with pentobarbital (40 mg/kg i.p.). When unresponsive, the vertebral column was exposed and a laminectomy carried out at T8-T9 levels. Rostral T7 and caudal T10 vertebral bodies were clamped with Adson stabilizing forceps, and carefully adjusted to level the spinal cord in the horizontal plane. A contusion injury was performed using the Infinite Horizon impactor device (Precision Scientific Instruments, Lexington, KY). The stainless steel impounder tip was placed at 3-4 mm above the exposed spinal cord, and then a fast impact produced applying forces of 150 or 250 kilodynes (KDyn) to the exposed spinal cord. The wound was sutured with 5-0 silk thread in the muscular plane and the skin was closed with small clips and disinfected with povidone iodine solution. Sham-operated animals received the same surgical procedure but sustained no impact injury; the spinal cord was left exposed for 5 min. The animals were maintained in a warm environment until full recovery, and received preventive antibiotic (amoxicyline) and analgesic (buprenorphine) treatment. All animals were kept under standard conditions of light and temperature and fed with food and water ad libitum. […]

BiP/Grp78 = test: Western blot of BiP/Grp78 in spinal cord after contusion SCI; type: in vivo, Sprague-Dawley rats
Procedure: as §1, with “treatment.” for “treatment. All animals were kept under standard conditions of light and temperature and fed with food and water ad libitum.”
Rats were re-anesthetised and decapitated at 3 dpo for sample preparation. […] After clearance, protein concentration was measured by the BCA method assay (BCA Protein Assay kit, Pierce). […]

CCCC(CCC)C(=O)O [VPA, 2-propylpentanoic acid]
CHOP accumulation promoted by tunicamycin (CHOP): can be attenuated | density of axonal profiles (axons; anti-neurofilament antibody RT97, rostral and caudal to the lesion): increased density | number of serotonin (5-HT)-positive axons (axons; rostral and caudal to the lesion): increased | BiP levels (BiP/Grp78; VPA 300 mg/kg every 12 h i.p., contusion 150 and 250 KDyn, three days post-injury): not able to alter | BiP levels (BiP/Grp78; VPA 300mg/kg once per day i.p., vs saline, 3 days post-injury): did not produce changes
